In publication PMC11678116 (Molecules, 2024):
Where “and” joins values, the source holds several entries; their conditions need not be identical. Identical values can stand only once. Like-named read-outs stand apart in the source and are kept apart here. Marks after values point to notes of the source that are not given here.

Legend:
[1] = tested on: P. falciparum Dd2 (PfDd2); conditions: multi-drug resistant strain; cited from earlier work
[2] = tested on: P. falciparum 3D7 (Pf3D7); conditions: CQ-sensitive strain; cited from earlier work
[3] = tested on: P. falciparum Dd2 (PfDd2); experiment: microbe, parasite or virus in culture; format: cell-based; conditions: Plasmodium falciparum, DD2, read-out: IC50 PfDd2
Procedure: The resistance index (RI), which represents a ratio between IC50 obtained against PfDd2 and Pf3D7, was also calculated (Table 3).
(§1) Briefly, 96-well plates were pre-coated with the tested compounds in a three-fold dilution before ring-stage parasites were added to the complete culture medium at a haematocrit of 1.5% and a parasitaemia of 0.05%. After three days of incubation at 37 °C, 5% CO2, and 5% oxygen, plates were frozen until analysed by HRP2-ELISA. All compounds were evaluated in duplicate in at least two independent experiments. The IC50 was determined by non-linear regression analysis of log concentration-response curves using the drc-package v0.9.0 of R v2.6.1 [42].

[4] = tested on: P. falciparum 3D7 (Pf3D7); experiment: In vitro drug sensitivity assay (HRP2-ELISA) against erythrocytic stage, CQ-sensitive strain; format: cell-based; conditions: Plasmodium falciparum, mean ± SD (n ≥ 2)
Procedure: as §1, with “After three days of incubation at 37 °C, 5% CO2, and 5% oxygen, plates were frozen until analysed by HRP2-ELISA.” left out

HepG2 cells = experiment: In vitro cytotoxicity, neutral red assay; format: cell-based; conditions: Homo sapiens, HepG2, 24 h, one day of incubation, mean ± SD (n ≥ 2)
Procedure: The cytotoxicity of the second-generation harmiquins 33–45 was assessed against HepG2 cells to determine the selectivity of the tested compounds towards P. falciparum in comparison to mammalian cells (Table 4).
Cytotoxicity against a human cell line (HepG2) was evaluated using the neutral red assay with minor modifications. In brief, human cells were seeded to a 96-well plate in a complete culture medium; on the following day, a serial dilution of the respective compound was added. After one day of incubation, cytotoxicity was evaluated by the addition of neutral red, subsequent lysis of cells, and measurement of absorbance (540 nm) in a plate reader (CLARIOstar, BMG Labtech). The IC50 was determined similarly to the in vitro drug assay against P. falciparum. To assess the safety of a compound, SI was calculated as the fractional ratio between the IC50s for HepG2 and P. falciparum 3D7 strain.

[5] = biological target: T1, human serum albumin (HSA) (Homo sapiens, UniProt P02768); experiment: biochemical
T1 sequence (P02768 25-609): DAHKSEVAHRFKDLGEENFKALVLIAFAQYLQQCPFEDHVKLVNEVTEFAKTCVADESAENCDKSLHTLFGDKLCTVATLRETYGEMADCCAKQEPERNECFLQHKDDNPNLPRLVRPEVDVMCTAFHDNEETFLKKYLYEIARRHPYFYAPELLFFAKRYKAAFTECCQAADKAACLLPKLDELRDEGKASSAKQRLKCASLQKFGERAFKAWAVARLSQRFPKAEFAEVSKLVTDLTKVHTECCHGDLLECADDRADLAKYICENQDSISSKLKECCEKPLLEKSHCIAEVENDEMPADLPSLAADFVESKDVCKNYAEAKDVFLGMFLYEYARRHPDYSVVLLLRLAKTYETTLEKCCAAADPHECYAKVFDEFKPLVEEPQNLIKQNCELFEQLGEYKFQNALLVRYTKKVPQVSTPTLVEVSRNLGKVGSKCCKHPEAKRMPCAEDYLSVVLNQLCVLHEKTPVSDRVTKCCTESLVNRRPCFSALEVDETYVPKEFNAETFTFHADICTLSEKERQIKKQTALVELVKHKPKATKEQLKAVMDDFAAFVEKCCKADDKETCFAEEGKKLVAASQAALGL
Procedure: (§4) The electronic absorption (UV/vis) spectra were recorded on a Varian Cary 100 Bio spectrophotometer (Varian, Inc., Palo Alto, CA, USA). Fluorescence measurements were performed on a Varian Cary Eclipse fluorimeter (Varian, Inc., CA, USA), taking care that the absorbance of a sample at the excitation wavelength was > 0.05 to avoid any impact of the inner filter effect.
(§5) Human serum albumin was purchased from Sigma-Aldrich (Sigma-Aldrich, St. Louis, MO, USA) supplier, and dissolved in milli Q (MQ) water.
(§6) Fluorimetric titration experiments were performed by adding aliquots of the polynucleotide stock solution into the solution of the studied dye. […] In both sets of experiments (fluorimetric and CD titrations), a buffer background was subtracted from each spectrum. Every reported spectrophotometric titration was the average of at least two measurements.

poly(dAdT)2 = format: binding
From the text: (§2) The titration data are processed by a non-linear fitting procedure to the Scatchard equation [44, 45, 46], yielding binding constants (Supplemental Information, Figures S5–S12, Table 6).
(§3) Polynucleotides were purchased as noted: calf thymus (ct) DNA, poly dAdT–poly dAdT, poly dGdC–poly dGdC, and poly A–poly U (Sigma Aldrich, St. Louis, MO, USA), and dissolved in sodium cacodylate buffer (I = 0.05 M, pH = 7.0).

calf thymus (ct)-DNA = format: binding; conditions: for log Ks ctDNA: pH 7; for ΔInt ctDNA: ΔInt = Int(100% complex)/Int0
From the text: as §2, §3

[6] = biological target: T1, human serum albumin (HSA); experiment: Fluorimetric titration with HSA
Procedure: as §4, §5, §6

[7] = biological target: poly A–poly U (pApU, ds-RNA); experiment: Fluorimetric titration with poly A–poly U; format: binding
Procedure: The strong emission and favourable Stokes shift of emission maxima allowed the performance of fluorimetric titrations with ds-DNA/RNA at very low (5 µM) concentrations of investigated compounds.
as §2, §3

Row | Compound | IC50 [3] [nM] | IC50 [4] [nM] | IC50 (HepG2 cells) [nM] | other results
1 | COc1ccc2c3ccnc(C)c3n(CCNC(=O)CNc3ccnc4cc(Cl)ccc34)c2c1 [A] |  |  |  | IC50 [1]: 16.2 ± 2.83 nM; IC50 [2]: 2 ± 0.3 nM
2 | COc1ccc2c3ccnc(C)c3n(Cc3cn(CCNc4ccnc5cc(Cl)ccc45)nn3)c2c1 [B] |  |  |  | IC50 [1]: 204 ± 9.89 nM; IC50 [2]: 11.6 ± 3.8 nM
3 | CCOc1ccc2c3ccnc(C)c3n(CCNC(=O)CNc3ccnc4cc(Cl)ccc34)c2c1 [Compound 33, 2-((7-Chloroquinolin-4-yl)amino)-N-(2-(7-ethoxy-1-methyl-9H-pyrido[3,4-b]indol-9-yl)ethyl)acetamide] | 6.5 ± 2.5 | 4.7 ± 1.3 |  | 
4 | CCCOc1ccc2c3ccnc(C)c3n(CCNC(=O)CNc3ccnc4cc(Cl)ccc34)c2c1 [Compound 34, 2-((7-Chloroquinolin-4-yl)amino)-N-(2-(1-methyl-7-propoxy-9H-pyrido[3,4-b]indol-9-yl)ethyl)acetamide] | 17.7 ± 8.7 | 11 ± 1.5 | 18200 ± 1800 | Kd [5]: 794 nM; log Ks toward AT-DNA and AU-RNA (poly(dAdT)2): 4–5; log Ks p(dA-dT)2 (poly(dAdT)2; pH 7): 5.2; ΔInt p(dA-dT)2 (poly(dAdT)2; ΔInt = Int(100% complex)/Int0): (2.28); log Ks toward GC-containing DNAs (calf thymus (ct)-DNA): 6–7; log Ks ctDNA (calf thymus (ct)-DNA): 7.3; ΔInt ctDNA (calf thymus (ct)-DNA): (0.57); ΔInt HSA [6]: (62.8); log Ks pApU ([7]; estimation only, almost linear emission change, pH 7.0, sodium cacodylate buffer, I = 0.05 M): >4 ^c
5 | Cc1nccc2c3ccc(OC(C)C)cc3n(CCNC(=O)CNc3ccnc4cc(Cl)ccc34)c12 [Compound 35, 2-((7-Chloroquinolin-4-yl)amino)-N-(2-(7-isopropoxy-1-methyl-9H-pyrido[3,4-b]indol-9-yl)ethyl)acetamide] | 26.5 ± 4.5 | 28.1 ± 0.5 | 127000 ± 31500 | 
6 | COc1ccc2c(c1)c1ccnc(C)c1n2CCNC(=O)CNc1ccnc2cc(Cl)ccc12 [Compound 36, 2-((7-Chloroquinolin-4-yl)amino)-N-(2-(6-methoxy-1-methyl-9H-pyrido[3,4-b]indol-9-yl)ethyl)acetamide] | 36.7 ± 4 | 16.6 ± 2.1 | 24300 ± 3400 | 
7 | CCCOc1ccc2c(c1)c1ccnc(C)c1n2CCNC(=O)CNc1ccnc2cc(Cl)ccc12 [Compound 37, 2-((7-Chloroquinolin-4-yl)amino)-N-(2-(1-methyl-6-propoxy-9H-pyrido[3,4-b]indol-9-yl)ethyl)acetamide] | 10.5 ± 0.4 | 4.6 ± 0.6 | 35800 ± 4300 | 
8 | CCOc1ccc2c3ccnc(C)c3n(Cc3cn(CCNc4ccnc5cc(Cl)ccc45)nn3)c2c1 [Compound 38, 7-Chloro-N-(2-(4-((7-ethoxy-1-methyl-9H-pyrido[3,4-b]indol-9-yl)methyl)-1H-1,2,3-triazol-1-yl)ethyl)quinolin-4-amine] | 82.2 ± 2.2 | 18.7 ± 4.7 | 29600 ± 6000 | 
9 | CCCOc1ccc2c3ccnc(C)c3n(Cc3cn(CCNc4ccnc5cc(Cl)ccc45)nn3)c2c1 [Compound 39, 7-Chloro-N-(2-(4-((1-methyl-7-propoxy-9H-pyrido[3,4-b]indol-9-yl)methyl)-1H-1,2,3-triazol-1-yl)ethyl)quinolin-4-amine] | 20.1 ± 2.2 | 6.8 ± 4 | 14400 ± 1700 | Kd [5]: 6310 nM and 7940 nM; emission response to AT-DNA (poly(dAdT)2): completely insensitive; log Ks toward GC-containing DNAs (calf thymus (ct)-DNA): 4–5; log Ks ctDNA (calf thymus (ct)-DNA): 5.5; ΔInt ctDNA (calf thymus (ct)-DNA): (0.59); emission response to AU-RNA ([7]; compound 5 µM, fluorimetric titration): completely insensitive
10 | Cc1nccc2c3ccc(OC(C)C)cc3n(Cc3cn(CCNc4ccnc5cc(Cl)ccc45)nn3)c12 [Compound 40, 7-Chloro-N-(2-(4-((7-isopropoxy-1-methyl-9H-pyrido[3,4-b]indol-9-yl)methyl)-1H-1,2,3-triazol-1-yl)ethyl)quinolin-4-amine] | 33.3 ± 1.6 | 25 ± 3.3 | 26900 ± 900 | 
11 | COc1ccc2c(c1)c1ccnc(C)c1n2Cc1cn(CCNc2ccnc3cc(Cl)ccc23)nn1 [Compound 41, 7-Chloro-N-(2-(4-((6-methoxy-1-methyl-9H-pyrido[3,4-b]indol-9-yl)methyl)-1H-1,2,3-triazol-1-yl)ethyl)quinolin-4-amine] | 98.7 ± 36.3 | 18.5 ± 6.1 | 32100 ± 1100 | 
12 | CCCOc1ccc2c(c1)c1ccnc(C)c1n2Cc1cn(CCNc2ccnc3cc(Cl)ccc23)nn1 [Compound 42, 7-Chloro-N-(2-(4-((1-methyl-6-propoxy-9H-pyrido[3,4-b]indol-9-yl)methyl)-1H-1,2,3-triazol-1-yl)ethyl)quinolin-4-amine] | 15.5 ± 1.7 | 7.6 ± 0.2 | 20300 ± 1600 | 
13 | CCc1nccc2c3ccccc3n(Cc3cn(CCNc4ccnc5cc(Cl)ccc45)nn3)c12 [Compound 43, 7-Chloro-N-(2-(4-((1-ethyl-9H-pyrido[3,4-b]indol-9-yl)methyl)-1H-1,2,3-triazol-1-yl)ethyl)quinolin-4-amine] | 204 ± 73.2 | 88.4 ± 0.5 | 68200 ± 6100 | 
14 | CCCc1nccc2c3ccccc3n(Cc3cn(CCNc4ccnc5cc(Cl)ccc45)nn3)c12 [Compound 44, 7-Chloro-N-(2-(4-((1-propyl-9H-pyrido[3,4-b]indol-9-yl)methyl)-1H-1,2,3-triazol-1-yl)ethyl)quinolin-4-amine] | 214 ± 71.8 | 96.9 ± 1.5 | 68900 ± 4300 | 
15 | CC(C)c1nccc2c3ccccc3n(Cc3cn(CCNc4ccnc5cc(Cl)ccc45)nn3)c12 [Compound 45, 7-Chloro-N-(2-(4-((1-isopropyl-9H-pyrido[3,4-b]indol-9-yl)methyl)-1H-1,2,3-triazol-1-yl)ethyl)quinolin-4-amine] | 18.8 ± 9.1 | 15.9 ± 11.5 | 128000 ± 2700 | 
